Patent publication US20230357179A1, “RAF KINASE INHIBITORS AND METHODS OF USE THEREOF” (Deciphera Pharmaceuticals, LLC, priority 2021, published 2023)

Tests used:
[1] = test system: A375 cells; assay: A375 cell proliferation assay (1), resazurin, 96-well; format: cell-based; details: Homo sapiens, A-375, inhibition of cell proliferation
Experimental: A375 Cell Proliferation Assay (1)
A375 cells (catalog (#CRL-1619) are obtained from the American Type Culture Collect (ATTC, Manassas, VA). Briefly, cells were grown in DMEM High Glucose supplemented with 10% characterized fetal bovine serum (Invitrogen, Carlsbad, CA) and 1% Penicillin/Streptomycin/L-Glutamine at 37° C., 5% CO2, and 95% humidity. Cells are expanded until reaching 70-95% confluency at which point they are sub-cultured or harvested for assay use. A serial dilution of test compound is dispensed into a 96-well black clear bottom plate in triplicate. Two thousand five hundred cells are added per well in 200 μL complete growth medium in the 96-well plate. Plates are incubated for 67-72 hours at 37° C., 5% CO2, and 95% humidity. At the end of the incubation, 40 μL of a 440 μM solution of resazurin (Sigma, St. Louis, MO) in PBS is added to each well of the plate and plates are incubated for an additional 5-6 hours at 37° C., 5% CO2, and 95% humidity. Plates are read on a Synergy2 or equivalent reader (Biotek, Winooski VT) using an excitation of 540 nm and an emission of 600 nm. Data is analyzed using Prism software (GraphPad, San Diego, CA) to calculate IC50 values.

[2] = target: T1, B-Raf kinase (Homo sapiens, UniProt P15056); assay: Biochemical assay for B-Raf.1 (coupled pyruvate kinase/lactate dehydrogenase); details: read-out: BRAF.1 IC50
T1 construct: GST (N); purchased Sigma
T1 sequence (P15056 416-766): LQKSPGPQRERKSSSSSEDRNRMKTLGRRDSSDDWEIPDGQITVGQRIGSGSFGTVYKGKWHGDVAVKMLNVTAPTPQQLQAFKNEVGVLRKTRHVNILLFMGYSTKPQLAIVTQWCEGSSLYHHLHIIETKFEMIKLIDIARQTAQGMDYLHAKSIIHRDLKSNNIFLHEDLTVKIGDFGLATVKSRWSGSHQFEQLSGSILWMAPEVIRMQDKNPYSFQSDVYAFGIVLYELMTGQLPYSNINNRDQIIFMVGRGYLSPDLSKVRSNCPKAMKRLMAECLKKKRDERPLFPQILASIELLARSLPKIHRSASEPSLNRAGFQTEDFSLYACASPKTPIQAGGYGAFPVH
Experimental: Biochemical Assay for B-Raf.1
(§1) Activity of B-Raf kinase (SEQ. ID NO: 2) was determined spectroscopically using a coupled pyruvate kinase/lactate dehydrogenase assay that continuously monitors the ATP hydrolysis-dependent oxidation of NADH (e.g., Schindler et al., Science, 2000, 289, 1938-1942). Assays were conducted in 384-well plates (100 μL final volume) using 0.13 nM B-Raf (Sigma), 1.5 units pyruvate kinase, 2.1 units lactate dehydrogenase, 1 mM phosphoenol pyruvate, 0.28 mM NADH, 30.1 nM MEK (SignalChem), and 1 mM ATP in assay buffer (100 mM Tris, pH 7.5, 15 mM MgCl2, 0.5 mM DTT, 0.1% octyl-glucoside, 0.002% (w/v) BSA, and 0.002% Triton X-100). Inhibition of B-Raf was measured by adding serial diluted test compound (final assay concentration of 1% DMSO). A decrease in absorption at 340 nm was monitored continuously for 6 h at 30° C. on a multi-mode microplate reader (BioTek). The reaction rate was calculated using the 4 to 5 h time frame. The reaction rate at each concentration of compound was converted to percent inhibition using controls (i.e., reaction with no test compound and reaction with a known inhibitor) and IC50 values were calculated by fitting a four-parameter sigmoidal curve to the data using Prism (GraphPad software).

[3] = target: T2, A-Raf kinase (Homo sapiens, UniProt P10398, Y301D/Y302D); assay: Biochemical assay for A-Raf.1 (coupled pyruvate kinase/lactate dehydrogenase); details: read-out: ARAF.1 IC50
T2 construct: purchased Sigma
T2 sequence (P10398 with tags, fused parts or gaps Y301D/Y302D): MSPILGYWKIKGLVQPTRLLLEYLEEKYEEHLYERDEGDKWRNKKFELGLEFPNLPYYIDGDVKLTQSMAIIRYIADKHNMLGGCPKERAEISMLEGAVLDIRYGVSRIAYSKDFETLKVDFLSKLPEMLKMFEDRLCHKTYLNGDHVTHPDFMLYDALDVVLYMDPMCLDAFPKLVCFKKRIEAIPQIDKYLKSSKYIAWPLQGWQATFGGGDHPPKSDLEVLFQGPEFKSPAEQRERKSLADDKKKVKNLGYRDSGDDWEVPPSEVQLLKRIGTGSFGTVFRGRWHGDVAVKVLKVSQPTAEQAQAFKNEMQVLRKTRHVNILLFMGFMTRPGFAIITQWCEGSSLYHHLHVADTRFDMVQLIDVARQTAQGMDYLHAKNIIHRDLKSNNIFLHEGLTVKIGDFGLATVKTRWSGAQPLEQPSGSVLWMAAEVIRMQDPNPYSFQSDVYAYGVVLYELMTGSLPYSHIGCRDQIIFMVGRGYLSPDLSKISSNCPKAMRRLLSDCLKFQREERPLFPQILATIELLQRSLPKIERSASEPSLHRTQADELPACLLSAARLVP
Experimental: Biochemical assay for A-Raf.1
as §1, with “A-Raf” for “B-Raf”, “NO. 1)” for “NO: 2)”, “5.55” for “0.13”

[4] = target: T3, B-Raf (V600E) kinase (Homo sapiens, UniProt P15056, V600E); assay: Biochemical assay for B-Raf (V600E).1 (coupled pyruvate kinase/lactate dehydrogenase); details: read-out: BRAF V600E.1 IC50
T3 construct: B-Raf (V600E) residues 416-766 with a; GST (N); purchased SignalChem
T3 sequence (P15056 416-766 V600E): as the sequence (P15056 416-766) above, with V185E counted along it
Experimental: Biochemical Assay for B-Raf (V600E).1
Activity of B-Raf (V600E) (SEQ. ID NO: 4) kinase was determined spectroscopically using a coupled pyruvate kinase/lactate dehydrogenase assay that continuously monitors the ATP hydrolysis-dependent oxidation of NADH (e.g., Schindler et al., Science, 2000, 289, 1938-1942). Assays were conducted in 384-well plates (100 μL final volume) using 0.03 nM B-Raf (SignalChem), 1.5 units pyruvate kinase, 2.1 units lactate dehydrogenase, 1 mM phosphoenol pyruvate, 0.28 mM NADH, 30.1 nM MEK (SignalChem), and 1 mM ATP in assay buffer (100 mM Tris, pH 7.5, 15 mM MgCl2, 0.5 mM DTT, 0.1% octyl-glucoside, 0.002% (w/v) BSA, and 0.002% Triton X-100). Inhibition of B-Raf (V600E) was measured by adding serial diluted test compound (final assay concentration of 1% DMSO). A decrease in absorption at 340 nm was monitored continuously for 6 h at 30° C. on a multi-mode microplate reader (BioTek). The reaction rate was calculated using the 3 to 4 h time frame. The reaction rate at each concentration of compound was converted to percent inhibition using controls (i.e., reaction with no test compound and reaction with a known inhibitor) and IC50 values were calculated by fitting a four-parameter sigmoidal curve to the data using Prism (GraphPad software).

[5] = target: T4, C-Raf kinase (Homo sapiens, UniProt P04049, Y340D/Y341D); assay: Biochemical assay for C-Raf.1 (coupled pyruvate kinase/lactate dehydrogenase); details: read-out: CRAF.1 IC50
T4 construct: Y340D,; GST (N); purchased Sigma
T4 sequence (P04049 307-648 Y340D/Y341D): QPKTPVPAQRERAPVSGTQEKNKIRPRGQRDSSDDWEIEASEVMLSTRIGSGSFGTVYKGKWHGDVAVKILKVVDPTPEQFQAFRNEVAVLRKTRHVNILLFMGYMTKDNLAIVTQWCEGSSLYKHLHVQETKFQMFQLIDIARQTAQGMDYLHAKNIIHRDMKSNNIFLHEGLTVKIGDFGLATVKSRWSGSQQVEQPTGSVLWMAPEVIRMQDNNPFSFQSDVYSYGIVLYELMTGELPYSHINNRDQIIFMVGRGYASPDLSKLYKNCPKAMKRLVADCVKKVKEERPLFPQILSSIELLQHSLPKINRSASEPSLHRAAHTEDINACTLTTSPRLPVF
Experimental: Biochemical Assay for C-Raf.1
as §1, with “of C-Raf” for “of B-Raf”, “NO: 3)” for “NO: 2)”, “using 0.43” for “using 0.13”, “nM C-Raf” for “nM B-Raf”

IC50 [1] [nM] | IC50 [2] [nM] | IC50 [3] [nM] | IC50 [4] [nM] | IC50 [5] [nM] | Compound
500 to 1000 | ≤ 100 | > 1000 | ≤ 100 | ≤ 100 | CC(=O)Nc1cc(-c2cc(-c3cc(NC(=O)NCCC(C)(C)C(F)(F)F)c(F)cc3C)cc(C3CC3)n2)ccn1 [Example 56]
1000 to 10000 | 100 to 500 | > 1000 | ≤ 100 | 100 to 500 | COC(C)(C)CCNC(=O)Nc1cc(-c2cc(OCCO)nc(-c3ccncc3)c2)c(C)cc1F [Example 40]
1000 to 10000 | 100 to 500 | > 1000 | ≤ 100 | 100 to 500 | Cc1ccc(NC(=O)NCCC(C)(C)C)cc1-c1cc(-c2cnn(C)c2)nc(N2CCOCC2)c1 [Example 6]
1000 to 10000 | 500 to 1000 | > 1000 | ≤ 100 | 100 to 500 | Cc1cc(F)c(NC(=O)Nc2cnn(C(C)(C)C)c2)cc1-c1cc(OCCN(C)C)nc(N2CCOCC2)c1 [Example 29]
1000 to 10000 | ≤ 100 | > 1000 | ≤ 100 | ≤ 100 | Cc1ccc(NC(=O)NCCC2(C)CC2)cc1-c1cc(-c2cnn(C)c2)nc(N2CCOCC2)c1 [Example 37]
100 to 500 | ≤ 100 | > 1000 | ≤ 100 | ≤ 100 | Cc1cc(F)c(NC(=O)NCCC(C)(C)C)cc1-c1cc(OCCO)nc(C2CCOCC2)c1 [Example 9]
1000 to 10000 | 100 to 500 | > 1000 | ≤ 100 | ≤ 100 | Cc1ccc(NC(=O)NC2CCCCCC2)cc1-c1cc(OCCO)nc(N2CCOCC2)c1 [Example 13]
1000 to 10000 | 100 to 500 | > 1000 | ≤ 100 | 100 to 500 | Cc1cc(F)c(NC(=O)NCCC(C)(C)C#N)cc1-c1cc(OCCO)nc(-c2ccncc2)c1 [Example 41]
1000 to 10000 | 100 to 500 | > 1000 | ≤ 100 | ≤ 100 | Cc1cc(F)c(NC(=O)NCCC(C)(C)F)cc1-c1cc(OCCO)nc(-c2ccncc2)c1 [Example 25]
1000 to 10000 | 500 to 1000 | > 1000 | ≤ 100 | 100 to 500 | Cc1ncc(NC(=O)NCCC(C)(C)C)cc1-c1cc(N2CCOCC2)nc(N2CCOCC2)c1 [Example 19]
1000 to 10000 | 500 to 1000 | > 1000 | ≤ 100 | 100 to 500 | Cc1ccc(NC(=O)NCCC(C)(C)C#N)cc1-c1cc(-c2cnn(C)c2)nc(N2CCOCC2)c1 [Example 21]
1000 to 10000 | > 1000 | > 1000 | > 1000 | > 1000 | Cc1cc(F)c(NC(=O)NC[C@H]2CCO2)cc1-c1cc(OCCO)nc(-c2ccnc3[nH]ncc23)c1 [Example 93]
1000 to 10000 | 500 to 1000 | > 1000 | ≤ 100 | 500 to 1000 | Cc1cc(F)c(NC(=O)N2CCC(C)(C#N)C2)cc1-c1cc(OCCO)nc(-c2ccnc3[nH]ncc23)c1 (stereo not drawn) [Example 95]
500 to 1000 | 500 to 1000 | > 1000 | ≤ 100 | 100 to 500 | Cc1ccc(NC(=O)N[C@H]2CCc3ccccc32)cc1-c1cc(OCCO)nc(N2CCOCC2)c1 [Example 20]
1000 to 10000 | 500 to 1000 | > 1000 | ≤ 100 | 100 to 500 | Cc1ccc(NC(=O)NCCC(C)(C)C)cc1-c1cc(N2CCOCC2)nc(N2CC(O)C2)n1 [Example 11]
1000 to 10000 | 100 to 500 | > 1000 | ≤ 100 | 100 to 500 | Cc1cc(F)c(NC(=O)NCCC2(C)CC2)cc1-c1cc(OC2CCN(C)CC2)nc(-c2ccncc2)c1 [Example 36]
1000 to 10000 | ≤ 100 | 100 to 500 | ≤ 100 | ≤ 100 | COC1(CCNC(=O)Nc2cc(-c3ccnc(-c4ccnc(NC(=O)C5CC5)c4)c3)c(C)cc2F)CC1 [Example 116]
1000 to 10000 | 100 to 500 | > 1000 | ≤ 100 | 100 to 500 | Cc1cc(F)c(NC(=O)NCCC2(C(F)(F)F)CC2)cc1-c1cc(N2CCOCC2)nc(N2CC[C@H](N(C)C)C2)c1 [Example 26]
500 to 1000 | ≤ 100 | > 1000 | ≤ 100 | ≤ 100 | CNc1cc(-c2cc(-c3cc(NC(=O)NCCC4(C)CC4)c(F)cc3C)cc(OCCO)n2)ccn1 [Example 27]
1000 to 10000 | ≤ 100 | > 1000 | ≤ 100 | ≤ 100 | Cc1cc(F)c(NC(=O)NCCC2(C)CC2)cc1-c1cc(OCCO)nc(-c2ccncc2)c1 [Example 32]
1000 to 10000 | > 1000 | > 1000 | > 1000 | > 1000 | COC(=O)Nc1cc(-c2cc(-c3cc(NC(=O)NCCC4CN(C)C4)cnc3C)cc(OCCO)n2)ccn1 [Example 183]
